The target of experiment [1] is Serine/threonine-protein kinase pim-2 (Homo sapiens, UniProt Q9P1W9). Put plainly: Inhibition of PIM2 (unknown origin).
The target in experiment [2] is Serine/threonine-protein kinase pim-3 (Homo sapiens, UniProt Q86V86). Put plainly: Inhibition of PIM3 (unknown origin).
In a further experiment the test system is MV4-11. The experiment can be described thus: Growth inhibition of human MV4-11 cells. The format is functional, cell-based.
Experiment [3] deals with HepG2. Put plainly: Cell cycle arrest in human HepG2 cells assessed as accumulation at sub-G1 phase at 1 uM by FACS analysis relative to control. The class given is functional.
The subject of experiment [4] is HepG2. Put plainly: Cell cycle arrest in human HepG2 cells assessed as accumulation at sub-G1 phase at 10 uM by FACS analysis relative to control. The class given is functional.
The test system of experiment [5] is HepG2. The experiment can be described thus: Cell cycle arrest in human HepG2 cells assessed as accumulation at G0/G1 phase at 1 uM by FACS analysis relative to control. The format is functional. (Flow cytometry measures light scatter and fluorescence of single cells or particles in a stream.)
The test system of experiment [6] is HepG2. The experiment can be described thus: Cell cycle arrest in human HepG2 cells assessed as accumulation at G0/G1 phase at 10 uM by FACS analysis relative to control. The format is functional.
In experiment [7] the test system is HepG2. The experiment can be described thus: Cell cycle arrest in human HepG2 cells assessed as accumulation at S phase at 1 uM by FACS analysis relative to control. The format is functional.
In experiment [8] the test system is HepG2. The experiment can be described thus: Cell cycle arrest in human HepG2 cells assessed as accumulation at S phase at 10 uM by FACS analysis relative to control. The format is functional.
The subject of experiment [9] is HepG2. Put plainly: Cell cycle arrest in human HepG2 cells assessed as accumulation at G2/M phase at 1 uM by FACS analysis relative to control. The class given is functional.
The test system of experiment [10] is HepG2. The experiment can be described thus: Cell cycle arrest in human HepG2 cells assessed as accumulation at G2/M phase at 10 uM by FACS analysis relative to control. The class given is functional.
The target in experiment [11] is Serine/threonine-protein kinase pim-1 (Homo sapiens, UniProt P11309).
Description: Inhibition of PIM1 (unknown origin)

Each structure is given as a SMILES string.

Sequence of Serine/threonine-protein kinase pim-2 (Q9P1W9 whole entry): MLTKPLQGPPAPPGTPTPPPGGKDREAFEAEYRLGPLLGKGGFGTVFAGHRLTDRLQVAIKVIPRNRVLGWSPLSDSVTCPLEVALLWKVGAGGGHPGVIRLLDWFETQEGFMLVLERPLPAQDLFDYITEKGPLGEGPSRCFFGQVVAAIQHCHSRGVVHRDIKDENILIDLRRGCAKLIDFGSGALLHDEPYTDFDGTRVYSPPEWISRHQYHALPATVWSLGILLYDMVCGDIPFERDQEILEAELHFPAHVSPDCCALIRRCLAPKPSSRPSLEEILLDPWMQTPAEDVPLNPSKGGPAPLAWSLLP
Sequence of Serine/threonine-protein kinase pim-1 (P11309 whole entry): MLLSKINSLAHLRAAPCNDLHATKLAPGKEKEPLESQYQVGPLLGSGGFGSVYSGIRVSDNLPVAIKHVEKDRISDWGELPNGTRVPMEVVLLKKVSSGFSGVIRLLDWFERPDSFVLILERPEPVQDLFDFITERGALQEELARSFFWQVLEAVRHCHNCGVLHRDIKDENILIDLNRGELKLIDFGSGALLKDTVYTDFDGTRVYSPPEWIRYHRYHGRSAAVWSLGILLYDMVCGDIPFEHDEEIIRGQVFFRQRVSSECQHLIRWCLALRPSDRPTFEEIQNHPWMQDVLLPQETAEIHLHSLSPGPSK

The IC50 is the concentration that gives 50% inhibition. Lower therefore signals greater potency in that assay. For the compound `CN(C)CCNc1cncc(-c2ccc3[nH]cc(-c4cccc(F)c4F)c3c2)n1`, the IC50 in experiment [1] stood at 0.645 µM; in experiment [2] it was 0.022 µM; with MV4-11, 2.6 µM; in experiment [11], 0.009 µM. In addition, the Activity in the experiment with HepG2 [3] stood at 2.8%; in the experiment on HepG2 [4], 74.2%; in the experiment on HepG2 [5] it was 56%; in the experiment on HepG2 [6] it was 22.6%; in the experiment with HepG2 [7] it was 19.2%; in the experiment with HepG2 [8] it was 3.2%. Further, the Activity in the experiment on HepG2 [9] came to 16.2%; with HepG2 [10], 0%.
In the case of `CN(C)CCNc1cncc(-c2ccc3[nH]cc(-c4cc(C#N)ccc4F)c3c2)n1`, the IC50 in experiment [1] amounted to 0.841 µM; in [2] it was 0.018 µM; with MV4-11, 2.9 µM; in experiment [11], 0.009 µM. In addition, the Activity came to 2.4% in the experiment on HepG2 [3]; 5.7% in the experiment with HepG2 [4]; 53.5% in the experiment with HepG2 [5]; 37.6% in the experiment with HepG2 [6]; 20.6% with HepG2 [7]; 28.3% with HepG2 [8]. Moreover, the Activity with HepG2 [9] is on record as 17%; in the experiment on HepG2 [10], 19%.

The record behind these values is ChEMBL document CHEMBL4118246, “Discovery and evaluation of 3,5-disubstituted indole derivatives as Pim kinase inhibitors” (Bioorg Med Chem Lett, 2018).
